Measured values: a melting point compilation (Tetko et al.)

| melting point [°C] | Compound |
| --- | --- |
| 159 to 161 | O=C(O)c1csc(-c2ccccc2F)n1 |
| 124 to 126 | O=C(O)COc1cccc(Oc2ccccn2)c1 |
| 123 to 125 | Nc1cnc(Cc2ccc(F)cc2)nc1 |
| 95 to 97 | CCNC(=O)COc1ccc(N)cc1 |
| 127 to 129 | O=C(O)Cc1cccc2sccc12 |
| 97 to 99 | N#CC(C(=O)c1ccccc1)c1ccccc1 (stereo not given) |
| 154 to 156 | COc1cccc(-c2csc(=O)[nH]2)c1 |
| 35 to 37 | BrCCOc1ccc(Oc2ccccc2)cc1 |
| 47 to 49 | Clc1ccc(NCc2ccccc2)cc1 |
| 77 to 79 | CNS(=O)(=O)c1ccc(Br)c(C)c1 |
| 145 to 147 | CC(C)(C)NS(=O)(=O)c1cccc(C(=O)O)c1 |
| 125 to 127 | Nc1nc(-c2cccc(Cl)c2)cs1 |
| 118 to 122 | O=C(O)c1cc(F)c(F)cc1Br |
| 256 to 258 | O=C(O)c1cc2cccc(Br)c2o1 |
| 99 to 101 | O=C(CCCl)N1CCN(c2ccc(F)cc2)CC1 |
| 118 to 120 | COc1ccc(CNC(=O)C2CCNCC2)cc1 |
| 122 to 124 | CC(C(=O)O)c1ccc(S(=O)(=O)N(C)C)cc1 (stereo not given) |
| 176 to 180 | COc1cccc(NCc2nnc3n2CCCCC3)c1 |
| 252 to 254 | Nc1cc(C(=O)O)ccc1N1CCSCC1 |
| 99 to 101 | O=Cc1csc(-c2cccc(Br)c2)n1 |
| 126 to 128 | Cc1nc(-c2cccc(O)c2)no1 |

| melting point [°C] | Compound |
| --- | --- |
| 124 to 126 | O=C1OCc2c1cccc2S(=O)(=O)Cl |
| 185 to 187 | COC(=O)c1ccc(NC(=O)Oc2ccccc2)cc1 |
| 160 to 162 | CC(=O)Nc1ccc(S(=O)(=O)NCCC(=O)O)cc1 |
| 265 to 267 | CC1(c2ccc(I)cc2)NC(=O)NC1=O (stereo not given) |
| 129 to 131 | Cc1ccccc1CC(=O)NN |
| 49 to 51 | CC(=O)Cc1ccc(-c2ccccc2)cc1 |
| 79 to 81 | O=C(CCl)N(Cc1ccccc1)c1ccccc1 |
| 67 to 69 | COC(=O)c1cc([N+](=O)[O-])cc([N+](=O)[O-])c1F |
| 188 to 190 | CC(C)C(=O)c1ccc2[nH]c(=O)oc2c1 |
| 78 to 80 | Nc1ccccc1C(=O)NCC1CCCO1 (stereo not given) |
| 60 to 62 | CCc1ccc(C(=O)O)s1 |
| 186 to 188 | CCOc1cc(/C=C(\C(=O)O)c2ccccc2)ccc1O |
| 157 to 159 | C=CCNC(=O)Nc1ccc(N)cc1 |
| 106 to 108 | Cc1ccc(C)n1-c1ccc(CC(=O)O)cc1 |
| 49 to 51 | O=C(Cc1cccc(F)c1)c1cccc(F)c1 |
| 254 to 256 | NC1(C(=O)O)Cc2ccccc2C1 |
| 159 to 161 | NC(=NO)c1ccc(Oc2ccccc2)nc1 |
| 239 to 241 | O=[N+]([O-])c1cccc2ncnc(O)c12 |
| 241 to 243 | Cc1ccc(-c2nnc(Cl)c3ccccc23)cc1C |
| 116 to 118 | Cc1ccc(-n2nc(C(C)(C)C)cc2N)cc1 |
| 201 to 203 | Cc1cc(Cl)c(N)c(C(=O)O)c1 |

| melting point [°C] | Compound |
| --- | --- |
| 96 to 98 | O=S(=O)(Cl)Cc1noc2ccccc12 |
| 139 to 141 | Cn1cc(C=CC(=O)O)c2ccccc21 |
| 79 to 81 | C=CCNC(=O)c1cccc(C#N)c1 |
| 236 to 238 | O=C1c2ccccc2-c2n[nH]c3cccc1c23 |
| 161 to 163 | O=C1CNc2cccc(F)c2N1 |
| 155 to 157 | NC(=O)Nc1ccc(N)cc1 |
| 84 to 86 | O=C(O)C1CC1c1cccc(C(F)(F)F)c1 (stereo not given) |
| 257 to 259 | Cc1nc(=NCC(=O)O)c2cc(-c3ccccc3)sc2[nH]1 |
| 173 to 175 | COc1ccccc1C(=O)/C=C1\NC(=O)CS1 |
| 131 to 133 | Cc1ccc(C(=O)Nc2cccc(CN)c2)cc1 |
| 212 to 214 | Cc1cc(C#N)ccc1Oc1ccc(C(=O)O)cc1 |
| 140 to 142 | O=C(O)c1cccc(S(=O)(=O)Nc2ccc(F)cc2)c1 |
| 179 to 181 | CC(C)S(=O)(=O)Nc1ccc(C(=O)O)cc1 |
| 148 to 150 | NS(=O)(=O)C=Cc1ccc(F)cc1 |
| 185 to 187 | COCCn1cc(C(=O)O)ccc1=O |
| 97 to 99 | Clc1cccc2cc(I)cnc12 |
| 235 to 237 | Cc1nc(-c2ccsc2)sc1C(=O)O |
| 277 to 279 | O=C(O)c1ccc2[nH]nnc2n1 |
| 154 to 156 | CCC1(C(=O)O)CCN(C(=O)c2ccccc2)CC1 |
| 108 to 110 | C=CCN1C(=O)C(=O)c2ccccc21 |
| 182 to 186 | Cc1cccc(C(=O)Nc2ccccc2C(=O)O)c1 |

| melting point [°C] | Compound |
| --- | --- |
| 70 to 72 | COc1ccc2cc(C(C)C#N)ccc2c1 (stereo not given) |
| 89 to 91 | CC(C)(C)C1=NN(c2ccccc2)C(=O)C1=CCl |
| 113 to 115 | O=C(O)CCNS(=O)(=O)c1cccc(C(F)(F)F)c1 |
| 137 to 139 | O=C(O)c1csc(Br)c1 |
| 166 to 168 | CCc1cccc(CC)c1NC(=O)C(C)Cl (stereo not given) |
| 208 to 210 | O=C(CCl)N(c1ccccc1)C1CCS(=O)(=O)C1 (stereo not given) |
| 218 to 220 | O=C(O)c1ccnc(Cl)c1I |
| 120 to 123 | Cc1c(NC(=O)CSc2ccccc2C(=O)O)c(=O)n(-c2ccccc2)n1C |
| 55 to 57 | COc1ccc(COCc2cccc(N)c2)cc1 |
| 104 to 106 | CN(C)c1ccc(NCc2ccc3ccccc3n2)cc1 |
| 92 to 94 | O=Cc1c(Cl)cccc1OCc1ccccc1Cl |
| 142 to 144 | CC(=O)CC(=O)Nc1ccc(I)cc1 |
| 179 to 181 | NS(=O)(=O)c1cc(Br)ccc1Cl |
| 107 to 109 | Cc1cnc(-c2cccc(N)c2)o1 |
| 153 to 155 | CN(Cc1ccccc1)C(=O)c1ccccc1C(=O)O |
| 155 to 157 | O=C(CCl)Nc1cc(C(F)(F)F)ccc1N1CCOCC1 |
| 109 to 111 | COc1ccc(NS(=O)(=O)c2cccc(N)c2)cc1 |
| 302 to 304 | Cn1cc(C(=O)O)c(=O)c2cc(Cl)ccc21 |

Further lines, the compound ahead of its results:

| Compound | melting point [°C] |
| --- | --- |
| O=C(NCCO)c1ccc(Br)cn1 | 98 to 100 |
| O=C(NCCCN1CCCC1)OCC(F)(F)F | 36 to 38 |
| O=C1NC(=O)C(CCSSCCC2NC(=O)NC2=O)N1 (stereo not given) | 236 to 238 |
| CCOC(=O)c1ncoc1-c1scnc1C | 78 to 80 |
| CN1CCN(C(=O)c2cc(N)ccn2)CC1 | 133 to 135 |
| O=C(CCCl)NC(=O)NCC(F)(F)F | 145 to 147 |
| O=[N+]([O-])c1cc(F)c(F)cc1[N+](=O)[O-] | 80 to 82 |
| CCN(CC)C(=O)N1CCC(C(=O)O)CC1 | 96 to 98 |
| Cc1nc(C)c2c(C)c(C(=O)O)sc2n1 | 347 to 349 |
| NC(=S)NCc1ccc(OC(F)(F)F)cc1 | 120 to 122 |
| Clc1cc(-n2ccnc2)ncn1 | 127 to 129 |
| NC(=S)NC1CCOc2ccccc21 (stereo not given) | 178 to 180 |
| CCc1cc(O)ncc1Br | 109 to 111 |
| Cc1nn(C)c(C)c1C(=O)C(=O)O | 160 to 168 |
| Cc1c(N)cccc1-n1cnnn1 | 124 to 126 |
| CSc1nn(C)c(N)c1C#N | 123 to 125 |
| CN1CCC(NCCO)CC1 | 37 to 39 |
| CC(C)OCCS(=O)(=O)NCC(=O)O | 63 to 65 |
| O=C(O)CCc1ncc(-c2ccco2)o1 | 140 to 142 |
| NC(=O)NCCc1cccnc1 | 152 to 154 |
| O=C(O)C=CC1CC1 | 68 to 70 |
| O=S(=O)(F)CC1CCOCC1 | 53 to 55 |

| Compound | melting point [°C] |
| --- | --- |
| O=C(O)CNC(=O)CNC(=O)c1ccco1 | 208 to 210 |
| Nc1nnc(SCC2COc3ccccc3O2)s1 (stereo not given) | 161 to 163 |
| NC(=S)CN1C(=O)c2ccccc2C1=O | 173 to 175 |
| CCOc1cc(C=O)cc(Br)c1OC | 52 to 54 |
| O=Cc1csc(-c2ccc(Cl)cc2)n1 | 124 to 126 |
| ClCc1cnoc1-c1ccc(Cl)cc1 | 78 to 80 |
| CC(C)N1CCCC(Br)C1=O (stereo not given) | 52 to 54 |
| OCc1nnc(-c2ccccc2Cl)o1 | 101 to 103 |
| O=C(O)CNC(=O)c1c[nH]c(=O)[nH]c1=O | 301 to 303 |
| CC(=O)N(C)c1nc(C=O)cs1 | 164 to 166 |
| Brc1cnn(-c2cccnc2)c1 | 126 to 128 |
| Nc1ccnn1CC1CCCCC1 | 59 to 61 |
| CCCC(C)S(N)(=O)=O (stereo not given) | 48 to 50 |
| O=C1C(Br)CCN1C1CCOCC1 (stereo not given) | 67 to 69 |
| CSc1ccc(N)cc1F | 49 to 51 |
| CCOC(=O)c1ccc(C=O)o1 | 35 to 37 |
| Cc1nccn1-c1ccc(C(F)(F)F)cc1N | 183 to 185 |
| [N-]=[N+]=NC(C(N)=O)c1ccc(F)cc1 (stereo not given) | 127 to 129 |
| c1cc2[nH]nnc2cn1 | 240 to 242 |
| CN1CCC(n2ncc3cc(Br)cnc32)CC1 | 120 to 122 |
| COC(=O)c1nc[nH]n1 | 180 to 182 |
| O=Cc1ccc(Br)cc1[N+](=O)[O-] | 95 to 100 |

| Compound | melting point [°C] |
| --- | --- |
| Cc1nc2ccccc2c(=O)n1-c1ccc(C(=O)O)cc1 | 220 to 222 |
| COc1ccc(Cl)cc1NC(=O)CCN | 66 to 68 |
| Nc1ncc(Cc2c(Cl)cccc2Cl)s1 | 139 to 141 |
| CSc1ccnc(C#N)c1 | 66 to 68 |
| Cc1cc(NC(=O)CSCC(N)C(=O)O)no1 (stereo not given) | 204 to 206 |
| N#CC1(CS(N)(=O)=O)CC1 | 109 to 111 |
| Cn1ccnc1-c1cc(N)on1 | 178 to 180 |
| O=C1C2C3CC4C2C(=O)C2C1C3C42 (stereo not given) | 240 to 242 |
| Cc1csc(NC(=O)C2CCCNC2)n1 (stereo not given) | 164 to 166 |
| Cc1nc(S)n(C2CC2)c1C | 178 to 180 |
| O=C(N=C=S)c1ccc(Cl)c(Cl)c1 | 49 to 51 |
| CCc1c(C(C)(C)C)noc1N | 75 to 77 |
| CCC(CC)C(N)=S | 55 to 57 |
| Cc1ccc(-c2nc(CCl)cs2)o1 | 71 to 73 |
| O=C(O)C1CSC(c2cccs2)N1 (stereo not given) | 148 to 150 |
| Nc1ncn(Cc2ccc(Cl)cc2)n1 | 156 to 158 |
| CCCN1C(=O)NC(=O)C1=O | 105 to 107 |
| CC(C)CN1CC(C(=O)O)CC1=O (stereo not given) | 83 to 85 |
| Cc1[nH]c(C(=O)O)c(C)c1C(=O)OC(C)C | 183 to 185 |
| Nc1ccc2c(Br)ccc(Cl)c2n1 | 249 to 251 |
